Values after ≈ are worked out from the molar mass of the structure shown.
How the values were obtained:
[1] = in vivo; cited from earlier work
physchem = format: physicochemical
Excerpt: The cyclic urea antiviral agents of this invention are generally poorly water-soluble. Poor water solubility could be related to low oral bioavailability and dose-related bioavailability. One effect of the formulation ingredients may be to alter water solubility. Water solubility in the presence of dilute concentrations of the formulation ingredients could then be related to oral bioavailability. Dilute formulation ingredients could mimic the dilution of an administered dosage form upon reaching the aqueous environment within the gastrointestinal tract. Aqueous solubility studies of cyclic urea antiviral agents were performed in the presence of dilute concentrations of possible formulation ingredients in this Example 4.
Specifically, aqueous solutions were prepared containing 4% (w/v) of the formulation ingredients listed. Excess solid compound [4R-(4α, 5α, 6β, 7β)]-hexahydro-5,6-bis (hydroxy)-1,3-bis ([(4-hydroxymethyl)phenyl]methyl)-4,7-bis (phenylmethyl)-2H-1,3-diazepin-2-one (Ex. No. 5U) was added and the samples were mixed 24 hours. Samples were filtered, and Ex. No. 5U solubility was determined by measuring filtrate drug concentrations using HPLC.

[2] = format: physicochemical
Procedure: Vehicles were evaluated for their capacity to solubilize a cyclic urea compound. Several methods were used. In Method A, vehicles were heated to 70°-80° C. and weighed amounts of the cyclic urea compound were added incrementally until the compound no longer dissolved. This is a visual estimation of solubility. In Method B, vehicles were prepared as in Method A, then cooled to room temperature, and then reheated to 50° C. Suspensions were filtered at 50° C. and compound concentrations in the liltrate filtrate were measured using a high performance liquid chromatographic (HPLC) method, providing the results shown under Method B.
Specifically, the vehicles of Table 1 were prepared and evaluated for solubility of a cyclic urea antiviral agent. The agent for Example 1 was [4R--(4a, 5a, 6β, 7β)]-hexahydro-5,6-bis(hydroxy)-1,3-bis([(4-hydroxymethyl)phenyl]methyl)-4,7-bis(phenylmethyl)-2H-1,3-diazepin-2-one. This compound corresponds to Ex. No. 5U in the above-cited PCT Application WO 93/07128, and is sometimes hereinafter referred to as Ex. No. 5U. In Table 1, all percentages are by weight.

Structure (SMILES)	oral bioavailability (in words) [1]	solubility at 24 h (physchem; 4% peg-60 hydrogenated castor oil, organic solvent or mixture) [µg/mL]	solubility at 24 h (physchem; water) [µg/mL]	solubility at 24 h (physchem; water with 4% peg-8, organic solvent or mixture) [µg/mL]	solubility at 24 h (physchem; water, 4% gelucire 44/14) [µg/mL]	solubility at 24 h (physchem; water, 4% glycerol dilaurate, organic solvent or mixture) [µg/mL]	solubility at 24 h (physchem; water, 4% labrasol) [µg/mL]	solubility at 24 h (physchem; water, 4% peg-4 laurate, organic solvent or mixture) [µg/mL]	solubility at 24 h (physchem; water, 4% peg-8 laurate, organic solvent or mixture) [µg/mL]	solubility at 24 h (physchem; water, 4% peg-8 stearate, organic solvent or mixture) [µg/mL]	solubility at 24 h (physchem; water, 4% peg-40 stearate, organic solvent or mixture) [µg/mL]	solubility in vehicle (in words) [2]
COC1=CC(=O)C[C@@H](C)[C@]12Oc1c(Cl)c(OC)cc(OC)c1C2=O [griseofulvin]	increased	–	–	–	–	–	–	–	–	–	–	–
O=C1N(Cc2ccc(CO)cc2)[C@H](Cc2ccccc2)[C@H](O)[C@@H](O)[C@@H](Cc2ccccc2)N1Cc1ccc(CO)cc1 [Ex. No. 5U, [4R-(4α, 5α, 6β, 7β)]-hexahydro-5,6-bis(hydroxy)-1,3-bis([(4-hydroxymethyl)phenyl]methyl)-4,7-bis(phenylmethyl)-2H-1,3-diazepin-2-one]	–	715 (≈ 1260 µM)	5 (≈ 8.82 µM)	12 (≈ 21.2 µM)	758 (≈ 1340 µM)	11 (≈ 19.4 µM)	410 (≈ 723 µM)	81 (≈ 143 µM)	283 (≈ 499 µM)	44 (≈ 77.6 µM)	718 (≈ 1270 µM)	increased solubility
